Data as given in article PMC9354638, “Targeting p21-activated kinase 4 (PAK4) with pyrazolo[3,4-d]pyrimidine derivative SPA7012 attenuates hepatic ischaemia-reperfusion injury in mice” (Journal of Enzyme Inhibition and Medicinal Chemistry, 2022).
“Also recorded” adds a separate entry of the source.

Tests used:
[1] = target: T1, PAK5 (Homo sapiens, UniProt Q9P286); assay: HotSpot kinase assay, PAK subtype selectivity; assay type: biochemical
T1 construct: purchased Reaction Biology Corporation (Malvern, PA, USA)
T1 sequence (Q9P286 whole entry): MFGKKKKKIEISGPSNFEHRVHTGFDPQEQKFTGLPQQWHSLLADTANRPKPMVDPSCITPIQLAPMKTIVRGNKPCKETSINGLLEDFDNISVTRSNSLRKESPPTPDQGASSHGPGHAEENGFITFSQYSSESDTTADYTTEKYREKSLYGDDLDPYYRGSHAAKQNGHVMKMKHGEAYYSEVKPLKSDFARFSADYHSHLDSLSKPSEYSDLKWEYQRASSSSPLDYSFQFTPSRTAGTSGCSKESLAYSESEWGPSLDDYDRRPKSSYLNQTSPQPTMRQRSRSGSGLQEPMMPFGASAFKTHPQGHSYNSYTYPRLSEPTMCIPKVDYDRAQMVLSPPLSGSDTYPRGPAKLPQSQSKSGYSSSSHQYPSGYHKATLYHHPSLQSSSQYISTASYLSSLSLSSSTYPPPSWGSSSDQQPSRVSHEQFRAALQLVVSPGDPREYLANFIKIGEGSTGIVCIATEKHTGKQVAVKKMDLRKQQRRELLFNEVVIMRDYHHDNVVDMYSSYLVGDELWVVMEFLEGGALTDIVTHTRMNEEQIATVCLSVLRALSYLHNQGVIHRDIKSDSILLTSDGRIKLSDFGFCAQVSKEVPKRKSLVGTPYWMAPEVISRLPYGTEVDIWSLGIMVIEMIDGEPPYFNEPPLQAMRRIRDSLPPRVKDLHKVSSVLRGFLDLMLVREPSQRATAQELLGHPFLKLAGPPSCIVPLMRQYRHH
Description: (§1) To examine the enzyme activity, HotSpot kinase assay was performed at Reaction Biology Corporation (Malvern, PA, USA). The kinase and substrate pairs were prepared in reaction buffer: 20 mM HEPES at pH 7.5, 10 mM MgCl2, 1 mM EGTA, 0.02% Brij 35, 0.02 mg/mL BSA, 0.1 mM Na3VO4, 2 mM DTT, and 1% DMSO. Compounds were added into the kinase reaction mixture and incubated for 20 min. Then, ^32 P-ATP was introduced to the mixture to initiate the reaction carried out at 10 μM of ATP concentration. After 2 h at room temperature, the mixture was spotted onto P81 ion exchange paper and kinase activity was then evaluated utilising the filter-binding method. Compounds were tested for single dose enzyme inhibition at a concentration of 20 μM. For the control compound, staurosporine was tested in a 10-dose IC50 mode. To determine the IC50 value, the compounds were tested for 10-doses with 3-fold serial dilution starting at 100 μM.
(§2) Synthesised compounds were evaluated for their in vitro PAK4 enzyme inhibitory activities. In vitro kinase assays were performed using HotSpot kinase assays for relative enzyme inhibitory activity at a single concentration (20 μM) and IC50 assessment at an ATP concentration of 10 μM (Figure 1(B)). […] For the allosteric pocket binder, cyclohexyl group (SPA7012) was preferable to the smaller dimethyl (SPA7011) or hydroxymethyl group (SPA7013), and the aromatic ring (SPA7014) reduced activity compared to the saturated ring (SPA7012). In vitro enzyme IC50 values appeared in the order of SPA7012, SPA7017, and SPA7016. […] Molecular docking analysis was performed on the human PAK4 catalytic domain structure complexed with GNE-2861 (PDB code: 4O0V). The binding pose of SPA7012 overlapped well with the crystal structure of GNE-2861, with the allosteric binder properly positioned in the specific back pocket. The oxygen atom in the tertiary alcohol of the hydrophobic allosteric binder formed hydrogen bonds with the backbone of Phe459 and the side chain of Glu366 (Figure 1(D)). The amine group and nitrogen atom in the pyrazolo[3,4-d]pyrimidine core scaffold also formed hydrogen bonds with Lue398 at the hinge region. Finally, SPA7012 was decided as a lead compound for further examination with satisfactory potency and subtype selectivity.

[2] = target: T2, PAK1 (Homo sapiens, UniProt Q13153); assay: HotSpot kinase assay, PAK subtype selectivity; assay type: biochemical; settings: relative percentage inhibition at 20 μM with staurosporine
T2 construct: purchased Reaction Biology Corporation (Malvern, PA, USA)
T2 sequence (Q13153 whole entry): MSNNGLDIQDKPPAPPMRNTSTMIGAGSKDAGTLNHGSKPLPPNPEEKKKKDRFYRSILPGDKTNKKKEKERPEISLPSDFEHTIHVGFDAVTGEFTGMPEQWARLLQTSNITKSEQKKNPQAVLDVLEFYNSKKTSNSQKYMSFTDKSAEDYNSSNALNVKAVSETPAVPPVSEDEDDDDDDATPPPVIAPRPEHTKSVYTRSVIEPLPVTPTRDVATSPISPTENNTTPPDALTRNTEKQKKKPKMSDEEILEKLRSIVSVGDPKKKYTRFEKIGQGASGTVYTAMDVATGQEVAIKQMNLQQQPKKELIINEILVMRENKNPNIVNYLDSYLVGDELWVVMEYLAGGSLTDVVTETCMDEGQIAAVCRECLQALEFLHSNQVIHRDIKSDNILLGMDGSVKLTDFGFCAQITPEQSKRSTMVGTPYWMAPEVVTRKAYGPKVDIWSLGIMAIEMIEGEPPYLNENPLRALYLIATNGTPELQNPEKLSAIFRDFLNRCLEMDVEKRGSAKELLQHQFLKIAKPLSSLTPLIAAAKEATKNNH
Description: as §1, §2

[3] = test system: C57BL/6 male mice with hepatic I/R injury; assay: Model of partial hepatic I/R injury in mice; assay type: in vivo, mouse
Description: Pathogen-free 8 to 10-week old C57BL/6 male mice (Orient Bio, Seoul, Korea) were kept under a 12-h light/dark cycle with controlled humidity of 50% at 22 °C, and had free access to food and water. Hepatic I/R injury was created using the following method.[15] Mice were anaesthetised with ketamine (100 mg/kg) and xylazine (10 mg/kg) by intraperitoneal injection. A midline incision was performed, and an atraumatic clip was placed across the portal vein, hepatic artery, and bile duct just above the right branch. Blood flow was interrupted to the left lateral and median lobes, which represent approximately 70% of the total blood supply to the liver. The liver was kept moist with a gauze soaked in saline, and body temperature was maintained at 37 °C with a warm blanket throughout ischaemia. After 60 min of partial hepatic ischaemia, the clip was removed to initiate reperfusion. The sham mice underwent the same operation without vascular occlusion. After the desired time period of reperfusion, the mice were euthanised by exsanguination under anaesthesia and serum samples were collected. The left lateral and median lobes of the liver were collected and stored at −80 °C until further analysis, or were immediately fixed in 10% formalin. All animal experiments were performed in accordance with the Guide for the Care and Use of Laboratory Animals published by the US National Institutes of Health (NIH Publication No. 85–23, revised 2011). The study protocol was approved by the Institutional Animal Care and Use Committee of Jeonbuk National University (permit number: JBNU-2019–00122).
Alanine aminotransferase (ALT) and aspartate aminotransferase (AST) in serum (Asan Pharm, Seoul, Korea), glutathione (GSH, Arbour Assays, Ann Arbour, MI, USA), malondialdehyde (MDA, ab118970, Abcam, Cambridge, UK) in liver tissues, and lactate dehydrogenase (LDH, Biovision, Milpitas, CA, USA) in culture medium were analysed using specific kits. Serum levels of IL-1β, IL-6, TNF-α, and CCL-2 were detected using ELISA kits (all from Invitrogen).
Total RNA was extracted from frozen liver tissues or primary hepatocytes using TRIzol reagent (Invitrogen). RNA was treated with isopropanol, dried using 70% ethanol, and dissolved in diethyl pyrocarbonate-treated distilled water. First-strand cDNA was generated using the random hexamer primer provided in the first-strand cDNA synthesis kit (Applied Biosystems, Foster City, CA, USA). Specific primers were designed using PrimerBank (https://pga.mgh.harvard.edu/primerbank, Table 1). qPCR reactions were performed in a final volume of 10μ L containing 10 ng reverse-transcribed total RNA, 200 nM forward and reverse primers, and PCR master mixture. qPCR was performed in 384-well plates using an ABI Prism™ 7900HT Sequence Detection System (Applied Biosystems).
Nuclear and cytoplasmic fractions were prepared using the NE-PER Nuclear and Cytoplasmic Extraction kit (Thermo Fisher Scientific, Waltham, MA, USA). Tissue homogenates or cell lysates (15 μg) were separated by 6–14% SDS-PAGE and transferred to PVDF membranes. After blocking with 5% skim milk, blots were probed with primary antibodies against: PAK4 (G222), p-PAK4 (S474), p-IKKβ (S176/180), p-IκBα (S32), p-p65 (S536), cleaved caspase-3 (Asp175), Bax (Cell Signalling Technology, Beverly, MA, USA), GAPDH (A531), lamin B1(L75), Bcl2(P65), NQO1 (F252) (Bioworld Technology, St Louis Park, MN, USA), NF-κB p65 (C-20), IKBα (H-4), IKKβ (10A9B6) (Santa Cruz Biotechnology, Dallas, TX, USA), Nrf2 (Proteintech, Rosemont, IL, USA), HO-1 (Enzo Life Sciences, Farmingdale, New York, USA), and p-Thr (Merck KGaA, Darmstadt, Germany). For co-immunoprecipitations, 600 μg protein was incubated with anti-Nrf2 antibodies (Proteintech, Sankt Leon-Rot, Germany) overnight at 4 °C followed by protein G agarose for 2 h at 4 °C. Blots were probed with antibodies against PAK4, Nrf2, or p-Thr. Immunoreactive bands were detected with a Las-4000 imager (GE Healthcare Life Science, Pittsburgh, PA, USA). […]

[4] = 50 mg/kg intraperitoneal before and during I/R, 1 h ischaemia, 6 h or 24 h reperfusion, vs I/R group

Q: What does the source list for `Cc1nn(-c2cccc(C#CC3(O)CCCCC3)c2)c2ncnc(N)c12` [Compound 14b, 3-(4-Amino-3-methylpyrazolo[3,4-d]pyrimidin-1-yl)phenylethynylcyclohexan-1-ol]?
A: IC50 ([1]; HotSpot kinase assay): > 100 µM; PAK5 % inhibitory activity ([1]; relative percentage inhibition at 20 μM with staurosporine): 52%; PAK1 % inhibitory activity [2]: 16%; Serum ALT level [3, 4]: significantly decreased; Serum AST level [3, 4]: significantly decreased; Inflammatory cell infiltration (F4/80-positive macrophages, Ly6G-positive neutrophils) in liver ([3]; 50 mg/kg, 24 h after reperfusion, listed as SPA7012): decreased; also recorded: drastic reduction; Cytokine production (TNF-α, IL-1β, IL-6, CCL-2; serum protein and liver mRNA) ([3]; 50 mg/kg, I/R injured mice): decreased; Phosphorylation levels of IKKβ and p65 in liver ([3]; 50 mg/kg, Western blotting): substantially decreased; Protein levels of IκBα in liver ([3]; 50 mg/kg, Western blotting): increased; Nuclear level of Nrf2 in I/R injured liver tissues ([3]; 50 mg/kg, Western blotting of nuclear extracts, listed as SPA7012): considerably increased; 4-HNE-positive cells in liver tissues ([3]; 50 mg/kg, vs I/R group): significantly lower; Area of necrosis in liver (H&E) ([3]; 50 mg/kg, vs I/R group): significantly smaller; Hepatic levels of GSH ([3]; 50 mg/kg, vs I/R group): significantly higher; MDA level ([3]; 50 mg/kg, vs I/R group): significantly lower; TUNEL-positive apoptotic cells in liver tissues ([3]; 50 mg/kg, vs I/R group): significant reduction; Total- and phospho-protein levels of PPARγ, PTEN, Akt, and GSK-3β ([3]; following SPA7012 treatment, data not shown): no changes
